Results: US20250034171A1, “IMIDAZOPYRIDINE AMIDES AND RELATED COMPOUNDS FOR USE IN THE TREATMENT OF BACTERIAL INFECTIONS” (priority 2021, published 2025)
In brackets after ≈: the same amount, converted by molar mass. Like-named read-outs stand apart in the source and are kept apart here.

Experiments:
[1] = HTChem stab assay (chemical stability in buffer pH2, pH4 and pH7 vs DMSO reference); format: physicochemical; conditions: 72 h, 50 µM; for Chemical stability data, Buffer pH2: pH 2; for Chemical stability data, Buffer pH4: pH 4; for Chemical stability data, Buffer pH7: pH 7
How it was run: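 Compound from 10 mM DMSO stock shaken 72 h at room temperature in Buffer/DMSO (2:1) at pH2 (0.1N HCl), pH4 or pH7 (phosphate), alongside a DMSO control. Samples analysed by LC/UV/MS against the DMSO reference; degradant peaks identified by MS and sample purity reported.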

[2] = tested on: Salmonella typhimurium Ames II Mixed Strains (TA7001-TA7006) and TA98; experiment: Genotoxicity assay (AmesIIb mutagenicity test); format: cell-based; conditions: Salmonella typhimurium; further: key: an AmesIIb score of 1 shows no genotoxicity signals
How it was run: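 Histidine-requiring strains were exposed to graded compound concentrations, both without and with a mammalian metabolic activation system. Base substitutions were detected with a mixture of TA7001–TA7006 and frameshifts with TA98. Reversion to histidine independence was scored by growth in histidine-lacking medium.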

[3] = Metabolic stability in liver microsomes (intrinsic clearance); format: in vitro ADME; conditions: microsomes
How it was run: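 Parent-compound loss, followed by LC-MS/MS peak area versus t=0, was tracked over 0, 5, 10, 20, 40 and 60 min in NADPH-initiated (1 mM) microsomal incubations: 0.5 mg/ml protein, pH 7.4 phosphate, 1 mM MgCl2, 37° C, substrate typically 1 μM. Half-life from regression gave intrinsic clearance per mg protein.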

[4] = tested on: Mycobacterium tuberculosis strain H37Rv; experiment: Test 2: MIC determination against M. tuberculosis, resazurin fluorescence; format: cell-based; conditions: Mycobacterium tuberculosis, H37RV, Test 2, M. tuberculosis H37Rv; for MIC90: read-out: Bacterial activity MIC90; for IC50: read-out: Bacterial activity pMIC50 (converted)
[5] = tested on: M. tuberculosis; conditions: cited from earlier work
[6] = tested on: M. tuberculosis H37Rv inside macrophages; conditions: strain M. tuberculosis H37Rv; cited from earlier work
[7] = mouse, pH 7.4, Metabolic Stability Half life (mouse, min.)
[8] = mouse, pH 7.4, mouse liver microsomes, read-out: Metabolic Stability (liver microsome intrinsic clearance) Clearance (mouse, μl/min./mg protein)

Compound	Chemical stability data, Vehicle DMSO [1]	Chemical stability data, Buffer pH2 [1]	Chemical stability data, Buffer pH4 [1]	Chemical stability data, Buffer pH7 [1]	GeneTox AmesIIb Score [2]	half-life at 1 µM [3, 7]	microsomal CLint at 1 µM [3, 8]	MIC90 [4]	IC50 [4]	half-life at 1 µM ([3]; human, pH 7.4, Metabolic Stability Half life (human, min.))	microsomal CLint at 1 µM ([3]; human, pH 7.4, human liver microsomes, read-out: Metabolic Stability (liver microsome intrinsic clearance) Clearance (human, μl/min./mg protein))	activity against MDR tuberculosis ([5]; MDR tuberculosis)	activity against replicating and non-replicating bacteria ([5]; replicating and non-replicating bacteria)	MIC50 [6]
CCc1nc2ncc(C)cn2c1C(=O)NCc1ccc(-c2nc3n(n2)CC(C(F)(F)F)CC3)cc1 (centres unmarked) [Compound 24ab]	100%	100%	100%	100%	1	> 3 h	< 7.7 µL/min/mg	0.008 µM (≈ 0.00387 µg/mL)	3380 pM	–	–	–	–	–
CCc1nc2ncc(C)cn2c1C(=O)NCc1ccc(-c2nc3n(n2)CCC(C(F)F)C3)cc1 (centres unmarked) [Compound 25ab]	100%	100%	100%	100%	1	2.32 h	9.97 µL/min/mg	0.014 µM (≈ 0.00652 µg/mL)	7460 pM	–	–	–	–	–
CCc1nc2ncc(C)cn2c1C(=O)NCc1ccc(-c2nc3n(n2)CCC(OC)C3)cc1 (centres unmarked) [Compound 26ab]	95%	95%	95%	95%	1	2.12 h	10.9 µL/min/mg	0.143 µM (≈ 0.0637 µg/mL)	49400 pM	–	–	–	–	–
CCc1nc2ncc(C)cn2c1C(=O)NCc1ccc(-c2nc3n(n2)CCC(O)C3)cc1 (centres unmarked) [Compound 29ab]	100%	100%	100%	100%	1	> 3 h	< 7.7 µL/min/mg	3.19 µM (≈ 1.38 µg/mL)	> 500000 pM	> 3 h	< 7.7 µL/min/mg	–	–	–
CCc1nc2ncc(C)cn2c1C(=O)NCc1ccc(-c2nc3n(n2)CCC(OCCOC)C3)cc1 (centres unmarked) [Compound 30ab]	98%	98%	98%	98%	1	2.55 h	9.08 µL/min/mg	0.332 µM (≈ 0.163 µg/mL)	109000 pM	–	–	–	–	–
CCc1nc2ncc(C)cn2c1C(=O)NCc1ccc(-c2nc3n(n2)CCCC3)cc1 [Compound 31ab]	100%	100%	100%	100%	1	> 3 h	< 7.7 µL/min/mg	0.052 µM (≈ 0.0216 µg/mL)	16000 pM	–	–	–	–	–
CCc1nc2nc(C)ccn2c1C(=O)NCc1ccc(-c2cn3c(n2)CC(C(F)(F)F)CC3)cc1 (centres unmarked) [Compound 34ab]	94%	94%	95%	93%	1	> 3 h	< 7.7 µL/min/mg	0.387 µM (≈ 0.187 µg/mL)	94600 pM	–	–	–	–	–
CCc1nc2nc(F)ccn2c1C(=O)NCc1ccc(-c2cn3c(n2)CC(C)CC3)cc1 (centres unmarked) [Compound 35ab]	100%	100%	99%	98%	1	0.498 h	46.4 µL/min/mg	0.041 µM (≈ 0.0177 µg/mL)	13400 pM	–	–	–	–	–
CCc1nc2ccc(Cl)cn2c1C(=O)NCc1ccc(N2CCC(c3ccc(OC(F)(F)F)cc3)CC2)cc1 [Compound Q203]	–	–	–	–	–	–	–	–	–	–	–	activity against MDR tuberculosis	highly active	0.00028 µM (≈ 0.000156 µg/mL)
